What all share (experiment): growth of human tumour cells (NCI), 48 h
The subject of test [1] is A498 renal.
Test [2] has as its system COLO 205 colon.
Test [3] concerns HOP-92 NSCLC.
Test [4] has as its system M14 melanoma.
Test [5] concerns OVCAR-5 ovarian.
In test [6] the test system is SK-MEL-28 melanoma.
In test [7] the test system is SK-MEL-5 melanoma.
Test [8] relates to SNB-19 CNS.
For test [9], the system named is U251 CNS.

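Values below derive from 48-hour exposures of cells grown in 96-well plates, with endpoints linearly interpolated between the two concentrations bracketing the appropriate inhibition level. At the GI50, growth is halved. TGI denotes the concentration required for complete inhibition of growth.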

As to `Oc1cc2c(cc1O)-c1[nH]ncc1CC2`, the TGI in [1] was 95.8 µM; in test [2] it was 66.5 µM; in test [3], 66.4 µM; in test [4], more than 100 µM; in test [5], more than 100 µM; in test [6], more than 100 µM. Also, the results for the TGI in [7], in test [8] and in [9] were more than 100 µM, more than 100 µM and 44.6 µM, respectively.
As to `CC(O[Si](C)(C)C)C1C=CC(C)n2c(=O)n(-c3ccccc3)c(=O)n21` (stereo not drawn), the TGI in [2], in test [4], in test [5], in test [6], in [7] and in test [8] was more than 100 µM in each case. This compound also registered a TGI in [9] of more than 100 µM.
On to `O=C(c1ccc2c3c(ccc(C(=O)C(F)(F)F)c13)CC2)C(F)(F)F`, for which the TGI in test [1] was more than 100 µM; in test [2] it was 44.1 µM; in test [3], 76.2 µM; in test [4] it was more than 100 µM; in [5], more than 100 µM; in [6] it was more than 100 µM. Further, the TGI in [8] and in test [9] was more than 100 µM each time.
On to `ClC[Si]12OCCN(CCO1)CCO2`, for which the TGI in test [1], in [2], in test [3], in test [5], in [6] and in [7] was more than 100 µM throughout. The TGI in test [8] and in [9] was more than 100 µM each time.
Turning to `Cc1cc2c(cc1C)[n+](=O)c(C(=O)/C=C/c1ccccc1Cl)c(C)n2[O-]`, the TGI was 96.7 µM in test [1]; 36.9 µM in [2]; 51.7 µM in test [4]; more than 100 µM in test [5]; 86.8 µM in test [6]; 59.6 µM in [7]. In addition, the TGI is more than 100 µM in test [8] and 84.4 µM in [9].
Turning to `CN(C)/C=N/c1nc2ncn(CCOC(=O)c3ccccc3)c2c(=O)[nH]1`, the TGI in test [1], in test [2], in test [3], in [4], in test [5] and in test [6] was more than 100 µM in each case. The TGI in test [7] and in [9] was more than 100 µM each time.
Take `CN(C)CCC1(C2=CCCC2)CC/C(=C\c2ccccc2)C1=O` (stereo not drawn): the TGI turned out to be 29.1 µM in [1]; 28.3 µM in test [2]; 45.6 µM in [3]; 30.2 µM in test [4]; 35.7 µM in test [5]; 38 µM in test [6]. For the same compound, the TGI in [7] worked out at 27.8 µM; in [8], 28.3 µM; in [9], 30.3 µM.
Consider `CC(C)CC(=O)NS(=O)(=O)c1ccccc1`, for which the TGI in test [1], in test [2], in test [3], in test [4], in [5] and in test [6] was more than 100 µM throughout. Further, the TGI in [8] and in test [9] was more than 100 µM each time.
As for `CC1(C)OC(=O)C(=C2CC(c3ccccc3)c3ccccc32)C(=O)O1` (stereo not drawn), the TGI in test [1], in test [2], in test [3], in test [4], in test [5] and in test [6] was more than 100 µM throughout. The TGI in test [7], in test [8] and in test [9] was more than 100 µM in each case.
As for `Cc1cc2c(c(N)c1C)C(=O)c1ccccc1C2=O`, the TGI in test [1] is 79 µM; in test [2] it was more than 100 µM; in test [3], 58.9 µM; in test [4] it was more than 100 µM; in [5] it was more than 100 µM; in [7], more than 100 µM. Also, the figures for the TGI in test [8] and in [9] were more than 100 µM and 96.6 µM, respectively.
Consider `CCSc1nc2n(c(=S)n1)CCN2C`, for which the TGI in test [1] amounted to 47.5 µM; in test [4] it was 31.5 µM; in [5], 42.7 µM; in test [6], 41.3 µM; in test [7] it was 30 µM; in [8], 37.8 µM. In addition, the TGI in test [9] was 41.2 µM.
For `CC1=C(c2cc(C(=O)Nc3nccs3)nc(NC#N)n2)Sc2ccccc2N1`, the TGI in test [1], in test [2], in [3], in [4], in test [5] and in [6] was more than 100 µM each time. For the same compound, the TGI in test [7], in test [8] and in [9] was more than 100 µM in each case.
Regarding `O=C([O-])c1ccccc1Nc1ccccc1[O-].[Ni+3].[OH3+].[OH3+].[OH3+]`, the GI50 in [1] is more than 100 µM; in [2], more than 100 µM; in test [3] it was 31.4 µM; in test [4] it was more than 100 µM; in test [5], more than 100 µM; in test [6] it was more than 100 µM. For the same compound, the GI50 in [7], in [8] and in [9] was more than 100 µM in each case. The TGI in [1], in test [2], in [3], in [4], in test [5] and in test [6] was more than 100 µM throughout. Moreover, the TGI in [7], in test [8] and in [9] was more than 100 µM throughout.
For the compound `CC1CCC23COC(=O)C2C(O)CCC3C1(C)CC(O)c1ccoc1` (stereo not drawn), the TGI in test [1], in [2], in test [3], in [4], in test [5] and in [6] was more than 100 µM each time. For the same compound, the TGI in test [7], in test [8] and in test [9] was more than 100 µM each time.
In the case of `O=c1[nH]c(/C=C(\O)c2ccncc2)nc2ccccc12`, the TGI in test [1], in [2], in test [4], in test [5], in test [6] and in [7] was more than 100 µM in each case. In addition, the TGI in [8] and in [9] was more than 100 µM each time.

(Values after PubChem BioAssay (NCI).)
